{"source": "patent US8809389B2", "about": "“Substituted alkynyl phenoxy compounds as new synergists in pesticidal compositions” (Endura S.p.A., priority 2009, dated 2014)", "key": {"[1]": {"tested_on": "pollen beetle, Meligethes aeneus", "assay": "Discriminating dose bioassay: α-cypermethrin in mixture with synergist", "assay_type": "in vivo", "settings": "for % Mortality: 24 h", "procedure": "Two pyrethroid resistant populations originating from two different areas in Poland ‘Rogalin'and lebork’ were collected in July 2008. A putative susceptible population, UK population, was also collected in July 2008 in Hertfordshire, UK. All populations were collected from oilseed rape contained adults only and were kept at room temperature before assays were performed.\nBioassays incorporating the compounds (Compound of Example 2 and Compound of Example 3) dissolved in acetone, were carried out using a diagnostic concentration of α-cypermethrin derived from the above full dose response bioassays in a mixture of 0.01 g L^−1 of the compounds. The concentration of α-cypermethrin used for the discriminating dose bioassays was 0.3 ppm α-cypermethrin for the two polish populations, Rogalin and Lebork and 0.03 ppm α-cypermethrin for UK population. Vials treated with the compounds only, dissolved in acetone and acetone only were used as controls. Ten to 15 replicates were used for each treatment depending on insect numbers within the population. Compounds concentrations chosen conferred no mortality in preliminary bioassays.\nTreated vials including the pollen beetles were stored in constant environment facilities at 18±2° C. and 16L: 8D. All bioassays were scored at an endpoint of 24 h after exposure to the insecticide. Insects incapable of coordinated movement (after gentle touching with a pencil brush if necessary) were scored as dead."}, "[2]": {"tested_on": "P450 enzymes (oxidases) of pollen beetle homogenate", "assay": "Oxidase assay: 7-ethoxycoumarin O-deethylation inhibition in pollen beetle homogenate", "assay_type": "biochemical, Meligethes aeneus", "settings": "3 μl of 10 mM compound, enzyme plus acetone = 100", "procedure": "The ability of the novel compositions comprising the synergists of Formula (I) to inhibit P450 enzymes, a major mechanism conferring resistance to xenobiotics, was measured using pollen beetle homogenate.\nApproximately 50 non-sexed adult pollen beetle from each population were homogenised on ice in 1 ml 0.1 M sodium phosphate buffer, pH 7.6, containing, 1 mM EDTA, 1 mM DTT, 1 mM PTU, 1 mM PMSF and centrifuged at 10 000×g for 10 min. The resulting supernatant was used as the enzyme source.\nThe O-deethylation inhibition by compounds of Example 2 or 3 was measured using 7-ethoxycoumarin (7-EC) according to Ullrich and Weber (Ullrich V and Weber P, The O-dealkylation of 7-ethoxycoumarin by liver microsomes. Z Physiol Chem 353: 1171-1177 (1972)) and adapted to the microplate format as described by DeSousa (De Sousa G, Cuany A, Brun A, Amichot M, Rahmani R, Berge J B, A microfluorometric method for measuring ethoxycoumarin-O-deethylase activity on individual Drosophila melanogaster abdomens: interest for screening resistance in insect populations Analyt. Biochem 229: 86-91 (1995)). Briefly, 7-EC was dissolved in ethanol to make a 20 mM stock solution and diluted by the addition of 0.1 M, pH 7.8 sodium phosphate buffer to give a concentration of 0.5 mM. Fifty microliters of pollen beetle enzyme were added to separate wells of a microplate, followed by the addition of 3 μl 10 mM of either compounds of Example 2 or 3 or acetone only. After 10 min incubation in room temperature, 80 μl 0.5 mM 7-EC was added following by another 5 min at 30° C. The reaction initiated by the addition of 10 μl 9.6 mM NADPH in 0.1 M sodium phosphate, pH 7.8. Enzyme activity was measured in a Victor^2 1420 multilabel counter (Wallac, Milton Keynes, UK) for 60 min with readings taken every 5 min, using an excitation wavelength of 370 nm and an emission wavelength of 460 nm. All assays were performed in triplicate.\nThe ability of the composition comprising the compounds of Examples 2 and 3 to inhibit oxidases derived from the 3 different pollen beetle populations is presented in Table 7."}}, "data": [{"smiles": "CC#CCOc1cc2c(cc1CCC)OCO2", "note": "[Example 3, 5-(but-2-ynyloxy)-6-propyl-benzo[1.3]dioxole]", "values": [{"measurement": "% Mortality", "setting": "[1]; Lebork, 0.3 ppm α-cypermethrin in mixture with 0.01 g L^−1 synergist", "result": 86.53, "unit": "%"}, {"measurement": "Mortality", "setting": "[1]; Rogalin and Lebork, 0.3 ppm α-cypermethrin in mixture with 0.01 g L^−1 synergist", "result": "around 85%"}, {"measurement": "% Mortality", "setting": "[1]; Rogalin, 0.3 ppm α-cypermethrin in mixture with 0.01 g L^−1 synergist", "result": 97.06, "unit": "%"}, {"measurement": "% Mortality", "setting": "[1]; UK population, 0.03 ppm α-cypermethrin in mixture with 0.01 g L^−1 synergist", "result": 68.78, "unit": "%"}, {"measurement": "Mortality with the compound only", "setting": "[1]; synergist only, without α-cypermethrin (data not shown)", "result": "No mortality"}, {"measurement": "Inhibition of 7-ethoxycoumarin O-deethylation (%)", "setting": "[2]; Lebork homogenate", "result": "−2.24", "unit": "%"}, {"measurement": "Inhibition of 7-ethoxycoumarin O-deethylation (%)", "setting": "[2]; Rogalin homogenate", "result": 27.6, "unit": "%"}, {"measurement": "Inhibition of 7-ethoxycoumarin O-deethylation (%)", "setting": "[2]; UK population homogenate", "result": 10.4, "unit": "%"}]}]}
